Results reported in patent US20250269072A1, “PROCESSES FOR PREPARING RADIOLABELLED CONJUGATES” (CENTENARY INSTITUTE OF CANCER MEDICINE AND CELL BIOLOGY, priority 2021, published 2025).
Where two headings read alike, the source gives them in different places.

Experiments:
proliferating cells = details: cited from earlier work
[1] = system: quiescent endothelial cells; details: quiescent endothelial cells in vitro; cited from earlier work
angiogenesis = details: in vivo; cited from earlier work
[2] = cited from earlier work
[3] = In vitro stability of labelled NODAGA-GSAO products at room temperature (HPLC); type: physicochemical
Procedure: The in vitro stability of the complexed product is an important determinant for the potential clinical use of a therapeutic compound. Post-labelling stability was assessed by incubation of the ^175Lu- and ^63Cu-labelled NODAGA-GSAO products at room temperature.
The percentage of labelling at different time-points following formation of the isotope-NODAGA-GSAO complex was measured. Results are shown in FIG. 5 for A) the ^175Lu-labelled product obtained from incubation for 30 minutes at pH 5.0 at 80° C. and B) the ^63Cu-labelled product obtained from incubation for 30 minutes at pH 5.0 at room temperature. At certain time points, aliquots were taken and the labelling (black circles) of NODAGA-GSAO were assessed by HPLC. Data are from one or two (average±S.D. of the two measurements) experiments.

[4] = Radiolysis of ^177Lu-CDI after synthesis (radio-HPLC); type: physicochemical
Procedure: Labelling of CDI (54 μg) with ^177Lutetium (^177Lu) was performed in 0.083 M sodium acetate buffer at pH 5.0. 177Lu (500 MBq) and ascorbic acid (0.002 M) were added and the mixture was incubated at 85° C. for 30 min. In a similar reaction, CDI was labelled with ^177Lu in the presence of 0.01 M ascorbic acid and 0.028 M GSH.
The experiments using the radioisotope ^177Lu were performed on a Shimadzu LC-20 series LC system with two LC-20AP pumps, an SPD-20A UV/VIS detector and analysed using the LabLogic Laura software (version 4.2.11.129 SP2). […] The analytical column was an Alltima HP C18 150×4.6 mm 5 μm particle size (Hichrom, Berkshire, UK). The column was equilibrated in a mixture of 0.1% (v/v) trifluoroacetic acid in MiliQ water (mobile phase A) and acetonitrile (mobile phase B; 98/2, v/v). Samples (100 μL) were loaded on the column using the autosampler at room temperature. Products were eluted using a gradient of […] mobile phase B in mobile phase A over 0-18-28-38-42 min (^177Lu) or 0-18-28-32-33 min (^175Lu) at a flowrate of 0.6 mL/min. Absorbance was measured at 210 nm, 256 nm, and 280 nm and radioactivity was detected using a LabLogic Dual Scan-RAM.

[5] = ^177Lu-CDI dosimetry estimated from ^68Ga-CDI biodistribution and kinetics; set-up: species or system human
Excerpt: The biodistribution and kinetics of ^68Ga-CDI was used to estimate […] dosimetry. […] These are similar to measured renal doses from ^177Lu-dotatate and ^177Lu-PSMA. Based on these estimations and comparability of renal dose to ^177Lu-dotatate and ^177Lu-PSMA, the initial […] level of ^177Lu-CDI will be approximately 2.0 GBq.

[6] = Afshar-Oromieh et al., 4 subjects

## N[C@@H](CCC(=O)N[C@@H](CSCC(=O)Nc1ccc([As](O)O)cc1)C(=O)NCC(=O)O)C(=O)O [GSAO, 4-(N—(S-glutathionylacetyl)amino)phenylarsenous acid]
Proliferating cells
  toxicity: toxic to proliferating cells
[1]
  toxicity: nontoxic to quiescent endothelial cells in vitro
angiogenesis
  effect on angiogenesis: inhibits angiogenesis in vivo

## O=C([O-])CN(CCN(CC(=O)[O-])Cc1cc(CCC(=O)NCCCCCC(=O)NCCCC[C@H](NC(=O)N[C@@H](CCC(=O)O)C(=O)O)C(=O)O)ccc1[O-])Cc1cc(CCC(=O)O)ccc1[O-].[68Ga+3].[OH3+] [^68Ga PSMA]
[2]; [6]
  mean effective dose: 2.3E-02 mSv/MBq
  renal dose: 2.6E-01 mSv/MBq
  urinary bladder dose: 1.3E-01 mSv/MBq
[2]; Pfob et al., 5 subjects
  Effective Dose: 2.37E-02 mSv/MBq
  renal dose: 1.21E-01 mSv/MBq
  urinary bladder dose: 1.64E-01 mSv/MBq

## O=C(O)CNC(=O)[C@H](CSCC(=O)Nc1ccc([As](O)O)cc1)NC(=O)CC[C@H](NC(=O)CCC1C(=O)[O][175Lu]2[O]C(=O)CN3CCN(CCN1CC3)CC(=O)[O]2)C(=O)O (stereo partly drawn) [^175Lu-NODAGA-GSAO]
[3]; room temperature storage
  by-products: 4-7.5 % of total AUC
[3]; room temperature, after 14 days of storage
  labelling remaining: ~90%

## O=C(O)CNC(=O)[C@H](CSCC(=O)Nc1ccc([As](O)O)cc1)NC(=O)CC[C@H](NC(=O)CCC1C(=O)[O][177Lu]2[O]C(=O)CN3CCN(CCN1CC3)CC(=O)[O]2)C(=O)O (stereo partly drawn) [^177Lu-NODAGA-GSAO]
[4]; […] incubation at room temperature, 0.002 M ascorbic acid
  radiolysis after synthesis: did not show an increase in radiolysis
[4]; labelling in presence of 0.01 M ascorbic acid and 0.028 M GSH
  radiolysis: prevented radiolysis during and up to 72 h post CDI labelling
[5]; combined physical decay and biological clearance model
  estimated renal dose: 0.36 mGy/MBq
[5]; physical decay only model
  estimated renal dose: 0.98 mGy/MBq
